In PMC8214221, “Sequence determinants in the cathelicidin LL-37 that promote inflammation via presentation of RNA to scavenger receptors” (The Journal of Biological Chemistry, 2021):
Residues, ends and D or L forms follow the SMILES beside them.

Key:
[1] = tested on: normal human epidermal keratinocytes (NHEKs); assay: LDH release cytotoxicity assay in keratinocytes; format: cell-based; details: minimal concentration giving 50% LDH release by NHEKs
Procedure, shortened: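 Normal human epidermal keratinocytes were exposed to LL-34 parent and alanine-substituted peptides. Cytotoxicity was read as LDH release in fresh culture supernatants after treatment, using a commercial kit, and reported as the minimal concentration showing toxicity.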

[2] = tested on: methicillin-resistant Staphylococcus aureus strain USA300; format: cell-based; details: MIC comparison with parent (MIC 25 μM); 18 h
Source text: Since LL-34 was the minimal truncation mutant of LL-37 that retained both antimicrobial and immune modulatory activity, we prepared a series of synthetic peptides with sequential substitutions of alanine at each amino acid position of the LL-34 parent peptide (Table 1). We compared the minimum inhibitory concentration (MIC) for the LL-34 parent peptide and the alanine mutants (LL-34 peptides—L1A and R34A) against methicillin-resistant Staphylococcus aureus strain USA300 (Fig. 1A). LL-34 peptides were incubated at concentrations of 0 to 100 μM with bacteria. The minimal concentration at which no growth was observed was noted after 18 h of incubation. […] Because of these changes in the MIC against S. aureus between the mutants, we investigated the effective toxicity profile of the peptides in normal human epidermal keratinocytes (NHEKs) by lactate dehydrogenase (LDH) release assay (Table 1). […] Most other peptides were cytotoxic at a minimal concentration of 10 μM, whereas LL-34—K15A was toxic at a concentration of 2.5 μM.
(§1) Methicillin-resistant S. aureus USA300 and methicillin-sensitive S. aureus SA113 (American Type Culture Collection 35556) were cultured in 3% tryptic soy broth overnight at 37 °C with shaking at 250 rpm. GAS M49 strain NZ131 was cultured in Todd Hewitt broth supplemented with 1% yeast extract overnight at 37 °C without shaking. E. coli R1 strain RS218 was cultured in LB broth overnight at 37 °C with shaking at 250 rpm. MIC values were determined using a round-bottom 96-well microdilution method with RPMI cell culture media (as a source of Ca^2+ and Mg^2+) supplemented with tryptic soy broth, Todd Hewitt broth/yeast extract, or LB to facilitate growth of the respective bacterial strains. Overnight bacterial cultures were subcultured into fresh broth and grown to midlate log phase indicated by an absorbance at 600 nm value between 0.8 and 1.0 for each bacterial strain. The absorbance was then normalized to provide a concentration of 1 × 10^7 colony-forming units/ml in RPMI medium. The LL-34 parent and alanine scan mutants were serially diluted into the 96-well microtiter plates containing prewarmed RPMI bacterial growth medium. A 10 μl aliquot of the midlate log phase bacteria was inoculated into the 96-well microtiter plates that contained 95 μl of RPMI medium with or without the LL-34 peptide dilutions and incubated for 16 to 18 h at […] with shaking at 200 rpm. Inhibition of growth was determined by measuring the absorbance at 600 nm readings of each well using a microplate reader (Infinite M200 Pro; Tecan). The MIC of each bacterial strain was determined by the lowest peptide concentration that inhibited more than 80% bacterial growth.

[3] = tested on: NHEKs, IL-6 secretion in response to U1 dsRNA; assay: IL-6 secretion ELISA in NHEKs; format: cell-based, human; details: U1 dsRNA 2.5 μg/ml + peptide 2 μM, 18 h, n = 3
Method: (§2) Protein levels of human IL-6 were analyzed from cell supernatant with ELISA (n = 3). Corresponding MIC values of LL-34 peptides L1A–R34A against Staphylococcus aureus USA300 are shown in the heat map. B, human dermal endothelial cells (HDMECs) were treated with either U1 dsRNA (2.5 μg/ml) or a combination of U1 dsRNA (2.5 μg/ml) and LL-34 peptides (Pep 1–Pep 34 and Pep–parent LL-34) at 2 μM for 18 h. IL-6 ELISA results are shown (n = 3). Green bars denote loss of IL-6 protein secretion compared with parent control shown in red. C, helical wheel plot for LL-34. Amino acids with green circles denote specific residues where replacement with an alanine caused the loss of IL-6 secretion compared with parent LL-34 peptide in NHEKs cotreated with U1 dsRNA. D, in the helical wheel plot for LL-34, circled green amino acids indicate that a substitution caused a loss of vetting in HDMEC. E–H, NHEKs were treated with LL-34-parent peptide (LL-34-P), LL-34-F5A, LL-34-I24A, LL-34-F27A, and LL-34-L31A at 2 μM, either individually or in combination with U1 dsRNA (2.5 μg/ml) for 8 h. Gene expression of IL-6, IFNB1, TSLP, and CXCL10 was assessed with qRT-PCR. GAPDH was used as a reference gene (n = 3) (∗p < 0.05; ∗∗∗∗p < 0.0001). One way-ANOVA was used. IL-6, interleukin 6; LL-34, 34-amino acid peptide; MIC, minimum inhibitory concentration, ns, not significant.
We hypothesized that sequential replacement of each amino acid in LL-34 peptide with a neutral amino acid alanine might reveal the amino acid residues critical for its ability to induce inflammation in response to U1 dsRNA. First, we treated NHEKs and human dermal microvascular endothelial cells (HDMECs) with LL-34 parent peptide and each of the 34 mutants at 2 μM for 18 h and measured the secretion of interleukin 6 (IL-6) in the supernatant by ELISA (Fig. S1, A and B). […] We then treated both NHEKs and HDMECs with a combination of U1 dsRNA (2.5 μg/ml) and the LL-34 parent/mutant peptides at 2 μM for 18 h and measured IL-6 secretion (Fig. 1, A–C). […] A similar pattern of IL-6 release was observed when HDMECs were treated with the peptide library and U1 dsRNA (Fig. 1B).
Cell culture supernatant was frozen at −80 °C until use for analysis. ELISA was performed with sandwich ELISA kits (R&D Systems) and quantified on a Spectramax Absorbance reader (Molecular Biosystems). Data were analyzed with GraphPad.

[4] = tested on: NHEKs, IL6, IFNB1, TSLP, CXCL10 mRNA; assay: qRT-PCR gene expression in NHEKs; format: cell-based, human; details: 18 h / 8 h (Fig. 1 legend), n = 3; for Gene expression of IL6, IFNB1, and CXCL10, cotreatment with U1 dsRNA: U1 dsRNA 2.5 μg/ml + peptide 2 μM; for Gene expression of TSLP, peptide alone / Basal expression of IL6, IFNB1, and CXCL10, peptide alone: peptide 2 μM alone; for Gene expression of TSLP, peptide alone: GAPDH reference
Method: as §2
(§3) We further looked at mRNA abundance by quantitative RT-PCR (qRT-PCR) to evaluate gene expression for type 1 interferon IFNB1, chemokine CXCL10, and cytokines TSLP and IL6 in NHEKs treated with selected LL-34 parent, LL-34—F5A, I24A, F27A, and L31A—peptides either alone or in combination with U1 dsRNA for 18 h (Fig. 1, E–H).
RNA extracted from cells (Pure Link RNA Isolation Kit; Life Technologies) was quantified on the Nanodrop 2000/200C Spectrophotometer (Thermo Fisher Scientific). About 500 ng of purified RNA was used to synthesize complementary DNA with iScript cDNA Synthesis Kit (Bio-Rad). Predeveloped Taqman (Thermo Fisher Scientific) gene expression assays were used to evaluate mRNA transcript levels. Taqman cycling conditions were used as previously described ([9], [45]). All experiments were performed on a CFX96 system (Bio-Rad). Fold change relative to GAPDH was calculated using the Livak ΔΔCt method ([46]).

[5] = tested on: S. aureus strain USA300 and SA112, GAS; assay: Bacterial growth inhibition (OD600), Gram-positive strains; format: cell-based, Staphylococcus aureus; group A Streptococcus; details: 0-50 µM overnight, OD 600, n = 3, S. aureus USA300, SA113 (SA112 in text)
Method: as §3, §1
(§4) (A) NHEKs and HDMECs (B) were treated with LL34- parent peptide and all the 34 alanine substituted peptides (Pep L1A-Pep R34A) and LL37 at 2 µM for 16 h. IL-6 protein secretion was assessed with ELISA (n=3) (C-F) LL34-Parent, LL34 F5A, LL34 I24A, LL34 F27A, and LL34 L31A peptides were incubated with S. aureus USA 300, S. aureus SA113, Group A Streptococcus (GAS) and E. coli at increasing concentrations (0-50 µM) overnight, and bacterial culture growth was assayed as absorbance at OD 600 (n=3).

Escherichia coli = assay: Bacterial growth inhibition (OD600), E. coli; format: cell-based; details: 0-50 µM overnight, OD 600, n = 3
Method: as §3, §1, §4

| Structure (SMILES) | Minimal cytotoxic concentration in NHEK (LD50) [1] | Antimicrobial potency against S. aureus USA300 compared with LL-34 parent peptide [2] | IL-6 protein secretion, cotreatment with U1 dsRNA, vs U1 dsRNA + LL-34 parent [3] | Gene expression of IL6, IFNB1, and CXCL10, cotreatment with U1 dsRNA [4] | Gene expression of TSLP, peptide alone [4] | Basal expression of IL6, IFNB1, and CXCL10, peptide alone [4] | Capacity to inhibit growth of Gram-positive bacteria [5] | Action against Gram-negative E. coli (Escherichia coli) |
| --- | --- | --- | --- | --- | --- | --- | --- | --- |
| CC[C@H](C)[C@H](NC(=O)[C@H](C)NC(=O)[C@H](CCC(=O)O)NC(=O)[C@H](CCCCN)NC(=O)[C@H](CO)NC(=O)[C@H](CCCCN)NC(=O)[C@H](CCCNC(=N)N)NC(=O)[C@H](Cc1ccccc1)NC(=O)[C@H](Cc1ccccc1)NC(=O)[C@H](CC(=O)O)NC(=O)CNC(=O)[C@H](CC(C)C)NC(=O)[C@@H](N)CC(C)C)C(=O)NCC(=O)N[C@@H](CCCCN)C(=O)N[C@@H](CCC(=O)O)C(=O)N[C@@H](Cc1ccccc1)C(=O)N[C@@H](CCCCN)C(=O)N[C@@H](CCCNC(=N)N)C(=O)N[C@H](C(=O)N[C@H](C(=O)N[C@@H](CCC(N)=O)C(=O)N[C@@H](CCCNC(=N)N)C(=O)N[C@H](C(=O)N[C@@H](CCCCN)C(=O)N[C@@H](CC(=O)O)C(=O)N[C@@H](Cc1ccccc1)C(=O)N[C@@H](CC(C)C)C(=O)N[C@@H](CCCNC(=N)N)C(=O)N[C@@H](CC(N)=O)C(=O)N[C@@H](CC(C)C)C(=O)N[C@H](C(=O)N1CCC[C@H]1C(=O)N[C@@H](CCCNC(=N)N)C(=O)O)C(C)C)[C@@H](C)CC)C(C)C)[C@@H](C)CC [LL-34—K12A] (H-LLGDFFRKSKEAIGKEFKRIVQRIKDFLRNLVPR-OH) | 5 µM | reduced MIC compared with the parent peptide | reduced secretion of IL-6 protein |  |  |  |  |  |
| CC[C@H](C)[C@H](NC(=O)[C@H](CCCCN)NC(=O)[C@H](CCC(=O)O)NC(=O)[C@H](CCCCN)NC(=O)[C@H](CO)NC(=O)[C@H](CCCCN)NC(=O)[C@H](CCCNC(=N)N)NC(=O)[C@H](Cc1ccccc1)NC(=O)[C@H](C)NC(=O)[C@H](CC(=O)O)NC(=O)CNC(=O)[C@H](CC(C)C)NC(=O)[C@@H](N)CC(C)C)C(=O)NCC(=O)N[C@@H](CCCCN)C(=O)N[C@@H](CCC(=O)O)C(=O)N[C@@H](Cc1ccccc1)C(=O)N[C@@H](CCCCN)C(=O)N[C@@H](CCCNC(=N)N)C(=O)N[C@H](C(=O)N[C@H](C(=O)N[C@@H](CCC(N)=O)C(=O)N[C@@H](CCCNC(=N)N)C(=O)N[C@H](C(=O)N[C@@H](CCCCN)C(=O)N[C@@H](CC(=O)O)C(=O)N[C@@H](Cc1ccccc1)C(=O)N[C@@H](CC(C)C)C(=O)N[C@@H](CCCNC(=N)N)C(=O)N[C@@H](CC(N)=O)C(=O)N[C@@H](CC(C)C)C(=O)N[C@H](C(=O)N1CCC[C@H]1C(=O)N[C@@H](CCCNC(=N)N)C(=O)O)C(C)C)[C@@H](C)CC)C(C)C)[C@@H](C)CC [LL-34—F5A] (H-LLGDAFRKSKEKIGKEFKRIVQRIKDFLRNLVPR-OH) | 10 µM |  | reduced secretion of IL-6 protein | reduction in gene expression | increased gene expression of TSLP | not affected | increased capacity to inhibit growth of most of the tested Gram-positive bacteria | little action |
| CC[C@H](C)[C@H](NC(=O)[C@H](CCCCN)NC(=O)[C@H](CCC(=O)O)NC(=O)[C@H](CCCCN)NC(=O)[C@H](CO)NC(=O)[C@H](CCCCN)NC(=O)[C@H](CCCNC(=N)N)NC(=O)[C@H](Cc1ccccc1)NC(=O)[C@H](Cc1ccccc1)NC(=O)[C@H](CC(=O)O)NC(=O)CNC(=O)[C@H](CC(C)C)NC(=O)[C@@H](N)CC(C)C)C(=O)NCC(=O)N[C@@H](CCCCN)C(=O)N[C@@H](CCC(=O)O)C(=O)N[C@@H](Cc1ccccc1)C(=O)N[C@@H](CCCCN)C(=O)N[C@@H](CCCNC(=N)N)C(=O)N[C@H](C(=O)N[C@H](C(=O)N[C@@H](CCC(N)=O)C(=O)N[C@@H](CCCNC(=N)N)C(=O)N[C@H](C(=O)N[C@@H](CCCCN)C(=O)N[C@@H](CC(=O)O)C(=O)N[C@@H](C)C(=O)N[C@@H](CC(C)C)C(=O)N[C@@H](CCCNC(=N)N)C(=O)N[C@@H](CC(N)=O)C(=O)N[C@@H](CC(C)C)C(=O)N[C@H](C(=O)N1CCC[C@H]1C(=O)N[C@@H](CCCNC(=N)N)C(=O)O)C(C)C)[C@@H](C)CC)C(C)C)[C@@H](C)CC [LL-34—F27A] (H-LLGDFFRKSKEKIGKEFKRIVQRIKDALRNLVPR-OH) | 10 µM |  | reduced secretion of IL-6 protein | reduction in gene expression | increased gene expression of TSLP | not affected | increased capacity to inhibit growth of most of the tested Gram-positive bacteria | little action |
